Values belong to the molecule of their own block, whether it stands above or below them.
How the values were obtained:
CDK4/cyclin D1 = CDK4/cyclin D1 (Homo sapiens, UniProt P11802); experiment: Kinase assay CDK4/cyclin D1; assay type: biochemical; settings: Ki calculated (Cheng-Prusoff) from experimentally determined IC50 and Km,ATP; read-out: Kinase Inhibition Ki CDK4 - cyclin D1
Outline: (§1)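 Radiometric filter assays used recombinant kinases or complexes (2-4 μg) with appropriate polypeptide substrates in pH 7.4 β-glycerophosphate/MOPS buffer. Reactions were started with 15 mM MgCl2 and 100 μM ATP containing [γ-32P]-ATP and run at 30° C. Phosphate incorporated into substrate was counted by scintillation after washing.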

CDK1/cyclin B = CDK1/cyclin B (Homo sapiens, UniProt P06493); experiment: Kinase assay CDK1/cyclin B (radioactive phosphate incorporation); assay type: biochemical; settings: Ki calculated (Cheng-Prusoff) from experimentally determined IC50 and Km,ATP; read-out: Kinase Inhibition Ki CDK1 - cyclin B
CDK1/cyclin B, sequence (P06493 whole entry, species assumed): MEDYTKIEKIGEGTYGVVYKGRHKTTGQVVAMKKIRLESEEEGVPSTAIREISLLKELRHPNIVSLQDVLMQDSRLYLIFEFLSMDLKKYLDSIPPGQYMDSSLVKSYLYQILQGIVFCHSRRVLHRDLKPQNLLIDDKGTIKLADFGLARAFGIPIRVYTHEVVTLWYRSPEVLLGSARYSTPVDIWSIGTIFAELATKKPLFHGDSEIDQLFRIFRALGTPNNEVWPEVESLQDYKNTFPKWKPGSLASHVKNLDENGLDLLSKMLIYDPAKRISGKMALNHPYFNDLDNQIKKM
CDK1/cyclin B, sequence (P14635 whole entry partner, species assumed): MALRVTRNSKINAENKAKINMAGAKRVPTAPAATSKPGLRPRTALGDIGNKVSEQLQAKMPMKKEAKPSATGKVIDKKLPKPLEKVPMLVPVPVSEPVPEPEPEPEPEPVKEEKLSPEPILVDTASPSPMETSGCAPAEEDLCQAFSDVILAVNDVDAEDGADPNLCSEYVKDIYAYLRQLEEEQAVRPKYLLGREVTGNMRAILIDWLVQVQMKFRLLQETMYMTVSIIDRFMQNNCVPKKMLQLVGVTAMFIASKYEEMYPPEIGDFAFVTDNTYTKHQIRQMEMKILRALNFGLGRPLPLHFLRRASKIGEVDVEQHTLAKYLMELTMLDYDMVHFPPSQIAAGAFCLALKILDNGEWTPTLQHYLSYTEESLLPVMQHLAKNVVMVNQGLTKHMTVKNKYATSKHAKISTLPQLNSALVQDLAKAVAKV
Outline: (§2)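 Radiometric assays measured transfer of radioactive phosphate from ATP onto polypeptide substrates, using 2-4 μg recombinant active enzyme in buffer typically containing 25 mM β-glycerophosphate, 20 mM MOPS, 5 mM EGTA, 1 mM DTT and 1 mM Na3VO3 at pH 7.4. Reactions were stopped on ice, filtered on P81 or GF/C plates and washed with orthophosphoric acid. Incorporated radioactivity was scintillation-counted.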

CDK7/cyclin H = CDK7/cyclin H (Homo sapiens, UniProt P50613); experiment: Kinase assay CDK7/cyclin H; assay type: biochemical; settings: Ki calculated (Cheng-Prusoff) from experimentally determined IC50 and Km,ATP; read-out: Kinase Inhibition Ki CDK7 - cyclin H
CDK7/cyclin H, sequence (P50613 whole entry, species assumed): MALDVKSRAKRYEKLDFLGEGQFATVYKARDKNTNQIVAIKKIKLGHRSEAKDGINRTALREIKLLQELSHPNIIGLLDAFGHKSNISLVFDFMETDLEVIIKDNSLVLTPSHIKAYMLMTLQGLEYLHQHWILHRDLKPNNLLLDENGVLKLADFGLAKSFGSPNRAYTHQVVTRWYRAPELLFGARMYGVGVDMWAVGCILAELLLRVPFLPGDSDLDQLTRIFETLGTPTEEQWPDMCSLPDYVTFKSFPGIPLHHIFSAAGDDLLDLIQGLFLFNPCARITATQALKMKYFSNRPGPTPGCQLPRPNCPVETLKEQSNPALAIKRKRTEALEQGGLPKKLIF
CDK7/cyclin H, sequence (P51946 whole entry partner, species assumed): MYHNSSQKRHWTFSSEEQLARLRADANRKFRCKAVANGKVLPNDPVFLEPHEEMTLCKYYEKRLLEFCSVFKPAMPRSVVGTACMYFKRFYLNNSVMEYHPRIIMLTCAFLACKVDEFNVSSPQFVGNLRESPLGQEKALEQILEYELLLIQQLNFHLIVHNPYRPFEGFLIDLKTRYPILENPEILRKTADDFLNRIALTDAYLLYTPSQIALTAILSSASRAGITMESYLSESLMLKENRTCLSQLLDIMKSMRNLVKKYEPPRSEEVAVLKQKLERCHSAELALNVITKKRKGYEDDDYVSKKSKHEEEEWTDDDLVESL
Outline: as §1

CDK2/cyclin E = CDK2/cyclin E (Homo sapiens, UniProt P24941); experiment: Kinase assay CDK2/cyclin E; assay type: biochemical; settings: Ki calculated (Cheng-Prusoff) from experimentally determined IC50 and Km,ATP; read-out: Kinase Inhibition Ki CDK2 - cyclin E
Outline: as §2

HIV-1 = HIV-1 in human PBMCs, seven days following infection
Procedure: Representative compounds of the present invention were tested for antiviral activity against HIV-1 in human peripheral blood mononuclear cells (PBMCs) using the clinical paediatric HIV strains RoJo or WeJo. PBMCs were cultured under conditions which promote cell survival and HIV replication.
Fresh PBMCs, seronegative for HIV and HBV, were isolated from screened donors (Interstate Blood Bank, Inc. Memphis, Tenn.). Cells were pelleted/washed 2-3 times by low speed centrifugation and re-suspension in PBS to remove contaminating platelets. […] Banded PBMCs were gently aspirated from the resulting interface and subsequently washed with PBS by low speed centrifugation. […] The cells were allowed to incubate at 37° C. […] IL-2 is included in the culture medium to maintain the cell division initiated by the PHA mitogenic stimulation. PBMCs were maintained in this with bi-weekly medium changes until used in the assay protocol. Cells were kept in culture for a maximum of two weeks before being deemed too old for use in assays and discarded. Monocytes were depleted from the culture as the result of adherence to the tissue culture flask.
For the standard PBMC assay, PHA-P stimulated cells from at least two normal donors were pooled, diluted and plated in the interior wells of a 96-well round bottom microplate. Pooling of mononuclear cells from more than one donor was used to minimise the variability observed between individual donors, which results from quantitative and qualitative differences in HIV infection and overall response to the PHA and IL-2 of primary lymphocyte populations. Each plate contained virus/cell control wells (cells plus virus), experimental wells (drug plus cells plus virus) and compound control wells (drug plus media without cells, necessary for MTS monitoring of cytotoxicity). Since HIV-1 is not cytopathic to PBMCs, this allows the use of the same assay plate for both antiviral activity and cytotoxicity measurements. Test drug dilutions were prepared in microtiter tubes and each concentration was placed in appropriate wells using the standard format. A predetermined dilution of virus stock was placed in each test well (final MOI≅0.1). The PBMC cultures were maintained for seven days following infection at 37° C., 5% CO2 After this period, cell-free supernatant samples were collected for analysis of reverse transcriptase activity and/or HIV p24 content. Following removal of supernatant samples, compound cytotoxicity was measured by addition of MTS to the plates for determination of cell viability. Wells were also examined microscopically and any abnormalities were noted.
Tritiated thymidine triphosphate (^3H-TTP, 80 Ci/mmol, NEN) was received in 1:1 dH2O:Ethanol at 1 mCi/mL. Poly rA:oligo dT template:primer (Pharmacia) was prepared as a stock solution, followed by aliquoting and storage at −20° C. The RT reaction buffer was prepared fresh on a daily basis. The final reaction mixture was prepared by combining ^3H-TTP, dH2O, poly rA:oligo dT stock and reaction buffer. This reaction mixture was placed in a round bottom microtiter plate and supernatant containing virus was added and mixed. The plate was incubated at 37° C. for 60 minutes. Following incubation, the reaction volume was spotted onto DE81 filter-mats (Wallac), in a sodium phosphate buffer or 2×SSC (Life Technologies). Next they were washed in distilled water, in 70% ethanol, and then dried. Incorporated radioactivity (counts per minute, CPM) was quantified using standard liquid scintillation techniques.

CDK9/cyclin T1 = CDK9/cyclin T1 (Homo sapiens, UniProt P50750); experiment: Kinase assay CDK9/cyclin T1; assay type: biochemical; settings: Ki calculated (Cheng-Prusoff) from experimentally determined IC50 and Km,ATP; read-out: Kinase Inhibition Ki CDK9 - cyclin T1
CDK9/cyclin T1, sequence (P50750 whole entry, species assumed): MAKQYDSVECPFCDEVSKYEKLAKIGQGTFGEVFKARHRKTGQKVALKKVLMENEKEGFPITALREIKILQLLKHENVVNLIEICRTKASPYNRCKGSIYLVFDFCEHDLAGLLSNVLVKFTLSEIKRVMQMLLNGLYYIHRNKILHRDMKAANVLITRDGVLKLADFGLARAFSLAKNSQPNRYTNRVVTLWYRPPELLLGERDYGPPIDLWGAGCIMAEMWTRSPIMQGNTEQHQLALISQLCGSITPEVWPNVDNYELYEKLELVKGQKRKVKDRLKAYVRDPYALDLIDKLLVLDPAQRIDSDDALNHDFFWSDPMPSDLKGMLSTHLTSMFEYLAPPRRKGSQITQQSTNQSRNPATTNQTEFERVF
CDK9/cyclin T1, sequence (O60563 whole entry partner, species assumed): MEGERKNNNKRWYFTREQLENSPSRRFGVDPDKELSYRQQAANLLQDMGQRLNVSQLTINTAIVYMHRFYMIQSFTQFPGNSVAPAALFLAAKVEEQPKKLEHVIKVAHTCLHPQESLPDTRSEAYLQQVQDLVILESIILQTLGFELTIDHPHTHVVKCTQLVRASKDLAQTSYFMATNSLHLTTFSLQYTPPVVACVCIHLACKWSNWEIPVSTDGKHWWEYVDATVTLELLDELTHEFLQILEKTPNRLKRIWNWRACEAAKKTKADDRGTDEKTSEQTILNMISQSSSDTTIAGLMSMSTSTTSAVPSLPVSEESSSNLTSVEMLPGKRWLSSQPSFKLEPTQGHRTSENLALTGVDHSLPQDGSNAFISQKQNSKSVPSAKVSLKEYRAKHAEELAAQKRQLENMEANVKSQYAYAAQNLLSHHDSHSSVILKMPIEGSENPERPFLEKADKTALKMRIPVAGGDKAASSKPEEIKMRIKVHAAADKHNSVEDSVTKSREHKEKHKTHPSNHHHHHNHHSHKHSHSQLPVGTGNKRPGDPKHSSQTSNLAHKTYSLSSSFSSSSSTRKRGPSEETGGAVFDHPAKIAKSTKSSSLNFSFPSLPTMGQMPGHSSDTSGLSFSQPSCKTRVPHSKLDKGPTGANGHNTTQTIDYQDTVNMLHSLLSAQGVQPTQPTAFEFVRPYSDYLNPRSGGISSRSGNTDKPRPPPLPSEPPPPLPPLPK
Outline: as §1

CDK2/cyclin A = CDK2/cyclin A (Homo sapiens, UniProt P24941); experiment: Kinase assay CDK2/cyclin A; assay type: biochemical; settings: Ki calculated (Cheng-Prusoff) from experimentally determined IC50 and Km,ATP; read-out: Kinase Inhibition Ki CDK2 - cyclin A
Outline: as §2

aurora A = target: T1, aurora A (Homo sapiens, UniProt O14965); experiment: Kinase assay aurora A; assay type: biochemical; settings: Ki calculated (Cheng-Prusoff) from experimentally determined IC50 and Km,ATP; read-out: Kinase Inhibition Ki Aurora A
T1 sequence (O14965 1-403): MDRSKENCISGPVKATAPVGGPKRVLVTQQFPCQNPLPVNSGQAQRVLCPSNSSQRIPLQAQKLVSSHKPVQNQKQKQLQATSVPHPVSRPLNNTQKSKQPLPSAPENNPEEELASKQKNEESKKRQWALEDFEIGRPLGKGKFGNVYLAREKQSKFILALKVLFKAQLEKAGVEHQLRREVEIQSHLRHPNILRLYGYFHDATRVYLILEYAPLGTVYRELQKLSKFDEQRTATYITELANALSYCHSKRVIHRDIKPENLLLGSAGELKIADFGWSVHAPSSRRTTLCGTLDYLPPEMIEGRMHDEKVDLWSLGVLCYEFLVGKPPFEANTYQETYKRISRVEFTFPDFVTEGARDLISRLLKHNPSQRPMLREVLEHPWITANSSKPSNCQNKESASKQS
Procedure: The compounds from the examples above were investigated for their ability to inhibit the enzymatic activity of various protein kinases. This was achieved by measurement of incorporation of radioactive phosphate from ATP into appropriate polypeptide substrates. Recombinant protein kinases and kinase complexes were produced or obtained commercially. Assays were performed using 96-well plates and appropriate assay buffers (typically 25 mM β-glycerophosphate, 20 mM MOPS, 5 mM EGTA, 1 mM DTT, 1 mM […], pH 7.4), into which were added 2-4 μg of active enzyme with appropriate substrates. […] Reactions were stopped on ice, followed by filtration through p81 filterplates or GF/C filterplates (Whatman Polyfiltronics, Kent, UK). After washing 3 times with 75 mM aq orthophosphoric acid, plates were dried, scintillant added and incorporated radioactivity measured in a scintillation counter (TopCount, Packard Instruments, Pangbourne, Berks, UK). Compounds for kinase assay were made up as 10 mM stocks in DMSO and diluted into 10% DMSO in assay buffer.

GSK3α = target: T2, GSK3α (Homo sapiens, UniProt P49840); experiment: GSK3α in vitro kinase assay; assay type: biochemical; settings: recombinant human GSK3α, 100 μM ATP
T2 construct: purchased Upstate
T2 sequence (P49840 whole entry): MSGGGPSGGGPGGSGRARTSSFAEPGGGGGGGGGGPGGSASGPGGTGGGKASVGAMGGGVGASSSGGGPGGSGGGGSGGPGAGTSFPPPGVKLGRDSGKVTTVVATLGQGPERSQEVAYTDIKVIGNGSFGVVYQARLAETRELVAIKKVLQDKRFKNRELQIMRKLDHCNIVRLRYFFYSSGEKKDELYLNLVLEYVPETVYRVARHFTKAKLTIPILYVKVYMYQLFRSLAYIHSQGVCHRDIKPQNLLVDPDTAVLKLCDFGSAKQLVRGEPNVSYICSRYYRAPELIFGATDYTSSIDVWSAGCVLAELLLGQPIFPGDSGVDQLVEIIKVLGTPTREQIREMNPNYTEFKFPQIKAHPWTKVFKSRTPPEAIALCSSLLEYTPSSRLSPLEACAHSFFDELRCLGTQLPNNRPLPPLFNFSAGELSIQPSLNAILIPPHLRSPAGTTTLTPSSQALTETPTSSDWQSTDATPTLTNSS
Procedure: Both isoforms of GSK3 (α and β) are involved in the regulation of glycogen synthase activity—key enzyme in the glycogen metabolism. The inhibitory potency of example compounds was determined using in vitro kinase assays with recombinant human GSK3-α and -β; the IC50 values determined are presented in Table 9.
A 10-point titration was set up to determine the IC50 values of selected example compounds against GSK3β. Assays were performed using 96-well microtiter plates with a final volume of 25 μL per well. Each assay contained 1.5 units of GSK3β(New England Biolabs), 200 μM CREB phosphopeptide ([…]pSYR, Alta Biosciences), 20 mM Tris HCl pH7.5, 5 mM DTT, 15 mM MgCl2 supplemented with 100 μM ATP and 0.5 μCi of [γ-^32P] ATP plus or minus inhibitor in 2% DMSO. Assays were carried out for 30 minutes at 30° C. before stopping the reaction by the addition of an equal volume of 75 mM aqueous phosphoric acid. Samples were then spotted onto a p81 filterplate (Whatman) and a vacuum was applied. Wells were washed 3 times with 200 μL of dilute aqueous phosphoric acid before the addition of 50 μL Microscint 40 per well. Incorporation of radioactivity was determined on a Topcount microplate scintillation counter (Packard).
GSK3α (Upstate) was assayed exactly as described above except that 1 ng of enzyme was added per assay point.

GSK3β = target: T3, GSK3β (Homo sapiens, UniProt P49841); experiment: GSK3β in vitro kinase assay; assay type: biochemical; settings: recombinant human GSK3β, 100 μM ATP
T3 construct: purchased New England Biolabs
T3 sequence (P49841 whole entry): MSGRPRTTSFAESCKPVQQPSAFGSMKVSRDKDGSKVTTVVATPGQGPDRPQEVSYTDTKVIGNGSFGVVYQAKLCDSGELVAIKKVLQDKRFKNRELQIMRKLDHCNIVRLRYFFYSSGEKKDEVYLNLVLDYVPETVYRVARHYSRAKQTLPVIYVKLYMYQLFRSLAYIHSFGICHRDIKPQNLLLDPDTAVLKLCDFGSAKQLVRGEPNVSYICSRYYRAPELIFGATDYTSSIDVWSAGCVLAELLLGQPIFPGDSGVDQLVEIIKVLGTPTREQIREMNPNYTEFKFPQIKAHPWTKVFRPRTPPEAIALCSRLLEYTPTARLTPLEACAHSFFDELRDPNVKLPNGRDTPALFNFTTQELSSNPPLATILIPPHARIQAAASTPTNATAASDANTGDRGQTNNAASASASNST
Outline: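 Radiometric filter-binding assay with GSK3β (1.5 units), 200 μM CREB phosphopeptide, 100 μM ATP plus [γ-32P]ATP, in 20 mM Tris HCl pH7.5, 5 mM DTT, 15 mM MgCl2, 2% DMSO; 30 min at 30° C, stopped with phosphoric acid. 32P incorporation counted by scintillation; IC50 from 10-point titration.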

CDK4/cyclin D1, sequence (P11802 whole entry, species assumed): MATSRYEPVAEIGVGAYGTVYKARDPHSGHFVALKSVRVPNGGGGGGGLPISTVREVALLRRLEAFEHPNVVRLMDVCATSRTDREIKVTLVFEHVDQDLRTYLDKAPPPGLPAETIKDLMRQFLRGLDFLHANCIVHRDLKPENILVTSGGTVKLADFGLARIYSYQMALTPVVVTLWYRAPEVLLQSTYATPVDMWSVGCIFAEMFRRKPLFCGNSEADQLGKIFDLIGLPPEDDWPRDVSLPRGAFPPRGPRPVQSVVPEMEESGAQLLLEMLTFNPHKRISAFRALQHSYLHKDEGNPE
CDK4/cyclin D1, sequence (P24385 whole entry partner, species assumed): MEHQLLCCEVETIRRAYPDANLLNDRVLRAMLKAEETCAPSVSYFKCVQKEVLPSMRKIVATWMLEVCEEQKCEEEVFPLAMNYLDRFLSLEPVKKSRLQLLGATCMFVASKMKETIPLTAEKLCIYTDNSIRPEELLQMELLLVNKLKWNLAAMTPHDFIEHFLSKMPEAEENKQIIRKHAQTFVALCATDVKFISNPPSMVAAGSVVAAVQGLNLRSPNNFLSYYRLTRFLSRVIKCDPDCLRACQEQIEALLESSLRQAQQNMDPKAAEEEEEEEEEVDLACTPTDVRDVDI

SMILES: CCn1c(C)c(-c2ccnc(Nc3cccc([N+](=O)[O-])c3)n2)sc1=O [Compound 23, 3-Ethyl-4-methyl-5-[2-(3-nitro-phenylamino)-pyrimidin-4-yl]-3H-thiazol-2-one]
Ki (CDK4/cyclin D1): 870 nM
Ki (CDK1/cyclin B): 290 nM
Ki (CDK7/cyclin H): 1.4 nM
Ki (CDK2/cyclin E): 16 nM
anti-HIV activity based on TI (therapeutic index: TC50/IC50) (HIV-1): Active
Ki (CDK9/cyclin T1): 0.3 nM
Ki (CDK2/cyclin A): 62 nM

SMILES: Cc1cc(Nc2nccc(-c3sc(=O)n(C)c3C)n2)ccc1Cl [Compound 15, 5-[2-(4-Chloro-3-methyl-phenylamino)-pyrimidin-4-yl]-3,4-dimethyl-3H-thiazol-2-one]
Ki (CDK4/cyclin D1): 9600 nM
Ki (CDK1/cyclin B): 600 nM
Ki (CDK2/cyclin E): 580 nM
anti-HIV activity based on TI (therapeutic index: TC50/IC50) (HIV-1): Active
Ki (CDK9/cyclin T1): 45 nM
Ki (CDK2/cyclin A): 460 nM

SMILES: Cc1c(-c2ccnc(Nc3ccc(F)cc3)n2)sc(=O)n1C [Compound 2, 5-[2-(4-Fluoro-phenylamino)-pyrimidin-4-yl]-3,4-dimethyl-3H-thiazol-2-one]
Ki (aurora A): 350 nM
anti-HIV activity based on TI (therapeutic index: TC50/IC50) (HIV-1): Active
Ki (CDK9/cyclin T1): 0.8 nM

SMILES: Cc1ccc(Nc2nccc(-c3sc(=O)n(C)c3C)n2)cc1C(F)(F)F [Compound 21, 3,4-Dimethyl-5-[2-(4-methyl-3-trifluoromethyl-phenylamino)-pyrimidin-4-yl]-3H-thiazol-2-one]
Ki (CDK1/cyclin B): 2300 nM
Ki (CDK7/cyclin H): 220 nM
Ki (CDK2/cyclin E): 190 nM
anti-HIV activity based on TI (therapeutic index: TC50/IC50) (HIV-1): Active
Ki (CDK9/cyclin T1): 170 nM
Ki (CDK2/cyclin A): 550 nM

IC50 (GSK3α): 3.6 nM
IC50 (GSK3β): 6.8 nM
SMILES: Cc1c(-c2ccnc(Nc3ccc(C#N)c(C(F)(F)F)c3)n2)sc(=O)n1C [Compound 70, 4-[4-(3,4-Dimethyl-2-oxo-2,3-dihydro-thiazol-5-yl)-pyrimidin-2-ylamino]-2-trifluoromethyl-benzonitrile]

SMILES: Cc1c(-c2ccnc(Nc3ccc(N4CCNCC4)cc3)n2)sc(=O)n1C [Compound 38, 3,4-Dimethyl-5-[2-(4-piperazin-1-yl-phenylamino)-pyrimidin-4-yl]-3H-thiazol-2-one]
Ki (CDK4/cyclin D1): 50 nM
Ki (aurora A): 88 nM
Ki (CDK1/cyclin B): 470 nM
Ki (CDK7/cyclin H): 38 nM
Ki (CDK2/cyclin E): 180 nM
anti-HIV activity based on TI (therapeutic index: TC50/IC50) (HIV-1): Active
Ki (CDK9/cyclin T1): 10 nM
Ki (CDK2/cyclin A): 300 nM

SMILES: Cc1c(-c2ccnc(Nc3cccc(S(N)(=O)=O)c3)n2)sc(=O)n1C [Compound 60, 3-[4-(3,4-Dimethyl-2-oxo-2,3-dihydro-thiazol-5-yl)-pyrimidin-2-ylamino]-benzenesulfonamide]
Ki (CDK4/cyclin D1): 22 nM
Ki (aurora A): 30 nM
Ki (CDK1/cyclin B): 21 nM
Ki (CDK7/cyclin H): 39 nM
IC50 (GSK3β): 1.8 nM
Ki (CDK2/cyclin E): 3.4 nM
anti-HIV activity based on TI (therapeutic index: TC50/IC50) (HIV-1): Active
Ki (CDK9/cyclin T1): 0.3 nM
Ki (CDK2/cyclin A): 21 nM

SMILES: Cc1c(-c2ccnc(Nc3cccc(C#N)c3)n2)sc(=O)n1C [Compound 16, 3-[4-(3,4-Dimethyl-2-oxo-2,3-dihydro-thiazol-5-yl)-pyrimidin-2-ylamino]-benzonitrile]
Ki (CDK4/cyclin D1): 100 nM
Ki (CDK1/cyclin B): 400 nM
Ki (CDK7/cyclin H): 6.8 nM
Ki (CDK2/cyclin E): 0.5 nM
anti-HIV activity based on TI (therapeutic index: TC50/IC50) (HIV-1): Active
Ki (CDK9/cyclin T1): 1.9 nM
Ki (CDK2/cyclin A): 42 nM

SMILES: CC(=O)NCc1ccc(Nc2nccc(-c3sc(=O)n(C)c3C)n2)cc1 [Compound 59, N-{4-[4-(3,4-Dimethyl-2-oxo-2,3-dihydro-thiazol-5-yl)-pyrimidin-2-ylamino]-benzyl}-acetamide]
Ki (CDK4/cyclin D1): 97 nM
Ki (aurora A): 110 nM
Ki (CDK1/cyclin B): 85 nM
Ki (CDK7/cyclin H): 210 nM
IC50 (GSK3β): 18.3 nM
Ki (CDK2/cyclin E): 1.6 nM
anti-HIV activity based on TI (therapeutic index: TC50/IC50) (HIV-1): Active
Ki (CDK9/cyclin T1): 7 nM
Ki (CDK2/cyclin A): 160 nM

SMILES: Cc1ccc(Nc2nccc(-c3sc(=O)n(C)c3C)n2)cc1[N+](=O)[O-] [Compound 11, 3,4-Dimethyl-5-[2-(4-methyl-3-nitro-phenylamino)-pyrimidin-4-yl]-3H-thiazol-2-one]
Ki (CDK4/cyclin D1): 380 nM
Ki (CDK1/cyclin B): 720 nM
Ki (CDK7/cyclin H): 36 nM
Ki (CDK2/cyclin E): 61 nM
anti-HIV activity based on TI (therapeutic index: TC50/IC50) (HIV-1): Active
Ki (CDK9/cyclin T1): 0.4 nM
Ki (CDK2/cyclin A): 220 nM

SMILES: CCn1c(C)c(-c2ccnc(Nc3ccc(OC)nc3)n2)sc1=O [Compound 33, 3-Ethyl-5-[2-(6-methoxy-pyridin-3-ylamino)-pyrimidin-4-yl]-4-methyl-3H-thiazol-2-one]
Ki (CDK4/cyclin D1): 35 nM
Ki (CDK1/cyclin B): 30 nM
Ki (CDK7/cyclin H): 23 nM
Ki (CDK2/cyclin E): 50 nM
anti-HIV activity based on TI (therapeutic index: TC50/IC50) (HIV-1): Active
Ki (CDK9/cyclin T1): 2.4 nM
Ki (CDK2/cyclin A): 760 nM

IC50 (GSK3α): 61.5 nM
IC50 (GSK3β): 70.9 nM
SMILES: Cc1c(-c2ccnc(Nc3cccc(S(=O)(=O)NCc4ccccc4)c3)n2)sc(=O)n1C [Compound 77, N-Benzyl-3-[4-(3,4-dimethyl-2-oxo-2,3-dihydro-thiazol-5-yl)-pyrimidin-2-ylamino]-benzenesulfonamide]
